Laboratory results reported in patent US4892883A, “Pharmaceutical compositions containing bilobalide for the treatment of neuropathies Ai” (Willman - Schwabe GmbH & Co., priority 1973, dated 1990).
Where two headings read alike, the source gives them in different places.

Assays:
[1] = system: Oxotremorine induced hypothermia, tremor and salivation in mice; assay: Oxotremorine induced hypothermia, tremor and salivation (Table XIII); type: in vivo, mouse (NMRI); settings: for Hypothermia: M ± SD
Experimental: (§1) The analgesia tests were carried out according to the hotplate test (J. Pharm. Pharmacol., 9, 381, 1957) and the tests for hypothermia, tremor and salivation according to the method described by Gouret (J. Pharmacol., 4, 105-128, 1973). Subsequently, the mice were treated with extract and Physostigmine etc., in a manner similar to the method described above in connection with the hypoxia tests.

[2] = system: spontaneous climbing behaviour (SCB) of mice; assay: Spontaneous climbing behaviour (SCB) of mice (Table X); type: in vivo, mouse (NMRI); settings: for influence of antagonists on the SCB activity of extract and Physostigmine: Scopolamine, Sulpiride, Naloxone, other receptor antagonists; for Mean climbing score, animal: M ± SD
Experimental: In one of these experiments the influence of the extract on the spontaneous climbing behaviour (SCB) was examined according to the method described by Marcais et al. (Psychopharmacology; 56, 233-234, 1978).
*The substances were applied 20 min before the observation period (30
min). In the combination experiments, the second substance was
administered 5 min before the first substance.

mice [3] = assay: Influence on anti-hypoxic effects of Pilocarpine and Physostigmine (Table XI); type: in vivo, mouse (NMRI); settings: for Survival time, treated animals: M ± SEM
Experimental: The protective actions of the extract against hypoxia were compared in a Hypobare-Hypoxia model, according to a method described by Nakanishi et al (Life Sci 13, 467-478, 1973). 4 mice (2 control animals and 2 treated animals) were put into a vacuum desiccator (3.51). A negative pressure of 170 mmHg was generated therein within 20 sec. The survival times of the animals under these hypoxia conditions were determined. The test substance was administered intraperitoneally in an aqueous solution 30 min before the experiment began. The control animals were only treated with solvents. The maximum observation period of the survival times was 8 min. The survival time of the treated animals tolerating the hypoxia condition longer than this period was assumed to be 480 sec. None of the control animals survived longer than 180 sec. The percentage of the treated animals surviving longer than 3 min was defined as %-effect of the extract.
The anti-hypoxic effects of the cholinomimetics Pilocarpine and the acetylcholine-esterase inhibitor Physostigmine entering the brain are known. […] The method applied for these experiments was similar to the above-described Hypobare-Hypoxia model. Groups of mice were treated orally with an aqueous suspension of the extract (or with water). Pilocarpine and Physostigmine, respectively (or water) were administered 30 min later. The hypoxia tests were carried out 30 min after the second application.

mice [4] = assay: Analgetic effect, hotplate test (Table XII); type: in vivo, mouse (NMRI); settings: for Latent period: M ± SD
Experimental: as §1
A The percentage of animals having a latent period of more than 60 sec.

brain and nerves [5] = settings: brain of many species, including humans; cited from earlier work
brain and nerves [6] = settings: brain of various species; cited from earlier work
[7] = Test 1, Physostigmine 0.1 mg/kg s.c.
[8] = Test 1, Physostigmine 0.2 mg/kg s.c.

Structure (SMILES): O=C1CCCN1CC#CCN1CCCC1 [Oxotremorine]
- Salivation ([1]; Oxotremorine 0.1 mg/kg i.p.): 60%
- Tremor ([1]; Oxotremorine 0.1 mg/kg i.p.): 0%
- Hypothermia ([1]; Oxotremorine 0.1 mg/kg i.p.): 2.5 ± 0.82 °C
- Salivation ([1]; Oxotremorine 0.2 mg/kg i.p.): 100%
- Tremor ([1]; Oxotremorine 0.2 mg/kg i.p.): 50%
- Hypothermia ([1]; Oxotremorine 0.2 mg/kg i.p.): 5.23 ± 1.19 °C

Structure (SMILES): CCN1CCCC1CNC(=O)c1cc(S(N)(=O)=O)ccc1OC (centres unmarked) [Sulpiride]
- influence of antagonists on the SCB activity of extract and Physostigmine [2]: do not influence the effects of Physostigmine and the extract

Structure (SMILES): CNC(=O)Oc1ccc2c(c1)[C@]1(C)CCN(C)[C@@H]1N2C [Physostigmine]
- influence of antagonists on the SCB activity of extract and Physostigmine [2]: inhibited only by specific anti-cholinergic agents entering the brain, such as Scopolamine and not influenced by antagonists to other receptors
- Mean climbing score, animal ([2]; Test II, 0.10 mg/kg s.c.): 1.39 ± 0.92
- Mean climbing score, animal ([2]; Test III, 0.025 mg/kg s.c.): 5.75 ± 1.28
- Mean climbing score, animal ([2]; Test III, 0.05 mg/kg s.c.): 3.88 ± 2.23
- influence on SCB of mice ([2]; words): reduces the SCB of mice
- % effect (mice [3]; Physostigmine 0.2 mg/kg i.p.): 20%
- Survival time, treated animals (mice [3]; Physostigmine 0.2 mg/kg i.p., control 80.6 ± 9.64): 190.63 ± 26.2 s
- % effect (animals with latent period of more than 60 sec) (mice [4]; [7]): 10%
- Latent period (mice [4]; [7]): 31.1 ± 13.9 s
- % effect (animals with latent period of more than 60 sec) (mice [4]; [8]): 50%
- Latent period (mice [4]; [8]): 44.1 ± 17.69 s

Structure (SMILES): Oc1c(Cl)cc(Cl)c(Cl)c1Cc1c(O)c(Cl)cc(Cl)c1Cl [hexachlorophene, 2,2'-methylene-bis(3,4,6-trichlorophenol)]
- neurotoxic effect (brain and nerves [5]): produces oedematous damage in the brain of many species, including humans

Structure (SMILES): C[CH2][Sn]([Cl])([CH2]C)[CH2]C [triethyltin chloride]
- neurotoxic effect (brain and nerves [6]): brings about an increase in the water content in the brain of various species and induces specific myelopathy in the nerves

Structure (SMILES): CN1[C@@H]2C[C@@H](OC(=O)[C@H](CO)c3ccccc3)C[C@H]1[C@@H]1O[C@@H]12 [Scopolamine]
- Mean climbing score, animal ([2]; Test II, 0.25 mg/kg i.p.): 6.63 ± 1.42

Structure (SMILES): CC[C@@H]1C(=O)OC[C@@H]1Cc1cncn1C [Pilocarpine]
- % effect (mice [3]; Pilocarpine 2 mg/kg i.p.): 30%
- Survival time, treated animals (mice [3]; Pilocarpine 2 mg/kg i.p., control 86.7 ± 6.82): 178.6 ± 24.8 s
- % effect (animals with latent period of more than 60 sec) (mice [4]; Test 2, Pilocarpine 5 mg/kg s.c.): 10%
- Latent period (mice [4]; Test 2, Pilocarpine 5 mg/kg s.c., control 15.74 ± 3.47): 24.9 ± 13.32 s

Structure (SMILES): C=CCN1CC[C@]23c4c5ccc(O)c4O[C@H]2C(=O)CC[C@@]3(O)[C@H]1C5 [Naloxone]
- influence of antagonists on the SCB activity of extract and Physostigmine [2]: do not influence the effects of Physostigmine and the extract
